Here are results for eight compounds from US9815783B2, “(3-alkylthio)propenoic acid-derived compounds and their application in cosmetics” (EXSYMOL, priority 2015, dated 2017).

For data set [1], the system named is HaCaT keratinocytes. Description: Viability of HaCaT keratinocytes exposed to UV-B cytotoxic doses (MTT method). To be noted: Homo sapiens, light or radiation study, UV-B 100 mJ/cm2, MTT after 24 hours, irradiated untreated control 46, non-irradiated 100, read-out: % cell viability; for viability at 500 µM: 0.5 mM in PBS; for viability at 100 µM: 0.1 mM in PBS; for viability at 250 µM: 0.25 mM in PBS. The format is cell-based. Here is the method:
Test 3: Evidence of the Ability of the (Z)-Isomer Conjugates of Formula (I) to Make Viable a Keratinocyte Cell Line Exposed to UV-B Cytotoxic Doses
Experimentally, the study was also carried out on a cell line of immortalized keratinocytes “HaCaT” seeded in 24-well plates at a rate of 8000 cells per square centimeter, namely 15200 cells per welkin 0.5 ml culture medium (with 10% foetal calf serum).
500 μl of the conjugate according to the invention were added in each well at a concentration from 0.05 to 0.5 mM in PBS. The cells in the presence of active ingredient were then exposed to ultraviolet radiations (UV-B) at the moderate dose of 100 mJ·cm−^2, and then placed into a medium without active ingredient for 24 hours. After removal of the medium, the HaCaT keratinocytes cell viability was also measured using the “MTT method” (solution at 250 μg/ml) and by spectrophotometry (absorbance at 570 nm). Gathering the average values obtained from three independent experiments, the results are presented in table 3 below, in comparison with those obtained for two controls, the non-irradiated cells and the non-treated irradiated cells with the conjugates according to the invention.
A general note: Tetrazolium assays rely on reduction of a dye to a coloured formazan, in cell work by metabolically active cells.

A short description of data set [2]: Photo-isomerization of (Z)-isomer conjugates to E-isomer under UV-B irradiation (HPLC). The format is physicochemical. Particulars: 2.5 mM in methanol with squalene; UV-B irradiation dose 1 J·cm−2; formation of E-isomer by HPLC. The procedure:
Test 4: Evidence of the Ability of the (Z)-Isomer Conjugates of Formula (I) to Absorb Ultraviolet Radiation by Photo-Isomerization
Principle: the aim is to check whether the conjugates according to the invention are able to isomerize under UV-B irradiation.
Experimentally, 2 ml of a squalene solution at 5 g/100 mL and 2 mL of a solution of compound according to the invention at the concentration of 25 mM in methanol were introduced into a 20 mL measuring cylinder, and then supplemented with methanol up to 20 mL. The preparation thus obtained was poured into a Petri dish onto which an irradiation dose of 1 J·cm^−2 was applied in a UV-B oven. At the end of the irradiation, the solutions were collected and analyzed by HPLC dosage. Volumes were previously standardized with methanol.
Chromatographic profiles were thus obtained, and the formation of the E-isomer was investigated. An isomerization rate was then determined by comparison with a control profile.

Data set [3] in a line: Antioxidant potential against squalene hydroperoxidation by singlet oxygen (quenching, methylene blue, UV-B, HPLC). To be noted: UV-B radiation dose 1.42 J·cm−2, methylene blue photosensitizer. The procedure: Experimentally, a squalene solution at 5 g/100 mL, a methylene blue solution at 5 mM and a solution of the compound according to the invention (from 1 to 5 mM) or a control compound (methylthiopropylamido acetyl methionine-AMDM) were prepared after being dissolved in 100 mL of methanol (HPLC grade). Then in a UV-B oven, each solution was poured in equal parts into an uncovered Petri dish, in order to be submitted to a radiation dose (1D) of 1.42 J·cm^−2. At the end of the radiation, volumes of the solutions were recovered, adjusted to 20 mL with methanol prior to analysis by HPLC assay and after removal of methylene blue. The “quenching,” rate was then deduced from the following equation: [formula]

The nature of data set [4]: Opposition to trans-urocanic acid photo-induced isomerization (HPLC). Particulars: compound 5 mM, irradiation dose 31 mJ·cm−2. The procedure:
Test 5: Evidence of the Ability of the (Z)-Isomer Conjugates of Formula (I) to Oppose the Trans-Urocanic Acid Photo-Induced Isomerization
Principle: the aim is to check whether the conjugates according to the invention are capable of opposing the trans-urocanic acid photo-isomerization.
Experimentally, the study was carried out almost identically as in tests 1 and 4 above. Beforehand, it was checked that under defined experimental conditions, trans-urocanic acid generates a significant amount of cis-urocanic acid that can be measured by HPLC analysis. The irradiation dose (1D) was 31 mJ·cm^−2 for a compound concentration of 5 mM.

Data set [5] concerns HaCaT keratinocytes. Description: Cytotoxic potential of sulfoxide and sulfone oxidation by-products on HaCaT keratinocytes (MTT method). The data set is classed as cell-based. To be noted: 2.5 mM in PBS, average of three independent experiments, control = 100. Here is the method:
Test 2: Evidence of the Absence of Cytotoxic Potential of the Oxidation by-Products of the (Z)-Isomer Conjugates of Formula (I)
Experimentally, the test was carried out on a cell line of immortalized keratinocytes “HaCaT” maintained by subculture in a complete culture medium “DMEM” (with 10% foetal calf serum) in a humid atmosphere at 37° C. and 5% CO2. HaCaT cells were seeded in 24-well plates at the rate of 1·10^5 cells per well.
Sulfoxide and sulfone derivatives of (Z)-isomer conjugates of formula (I) were synthesized after a stoichiometric exposure to hydrogen peroxide (H2O2), then purified and finally quantified.
500 μl of sulfoxide and sulfone oxidation by-products from the conjugates according to the invention were added in each well, at the concentration of 2.5 mM in PBS. After removal of the medium, the HaCaT keratinocytes cell viability was measured using the “MTT method” (MTT standing for (4,5-dimethylthiazol-2-yl)-2,5-diphenyltetrazolium bromide) (solution at 500 μg/ml) and by spectrophotometry (absorbance at 550 nm). Expressed as the average values obtained from three independent experiments, the results are gathered in table 2 below, in comparison with those obtained for the non-irradiated cells.

Each structure is given as a SMILES string.

As a reminder, the viability is the share of living cells, or the viability signal relative to a control. Consider `CCNC(=O)/C=C\SC` [(Z)-N-ethyl-3-(methylthio)propenamide], for which the viability at 500 µM with HaCaT keratinocytes [1] worked out at 86%. In addition, in data set [2], the “% isomerization” value amounted to 60%.
As for `CS/C=C\C(=O)NCCc1ccc(O)cc1` [(Z)-N-(4-hydroxyphenethyl)-3-(methylthio)propenamide], the “% squalene protection” value in data set [3] (compound 1 mM in methanol) was 35%. The “% squalene protection” value in data set [3] (compound 5 mM in methanol) is reported as 44%. In the data set with HaCaT keratinocytes [1], the viability at 100 µM was found to be 70%, the viability at 250 µM stood at 93% and the viability at 500 µM worked out at 100%. For the same compound, the “% inhibition of trans-urocanic acid photo-isomerization” value in data set [4] came to 78%. The “% isomerization” value in data set [2] amounted to 95%.
Consider `CS(=O)(=S)/C=C\C(=O)NCCc1ccc(O)cc1` (stereo not shown) [(Z)-N-(4-hydroxyphenethyl)-3-(methylthiosulfonyl)propenamide], for which, in the data set on HaCaT keratinocytes [5], the “% cell viability” value is recorded as 95.0%.
For `CSCCCNC(=O)C(CCSC)NC(C)=O` (stereo not shown) [AMDM, methylthiopropylamido acetyl methionine, reference compound], the results for the “% squalene protection” value in data set [3] (compound 1 mM in methanol) and in data set [3] (compound 5 mM in methanol) were 3% and 15%, respectively.
As for `CS/C=C/C(=O)NCCc1ccc(O)cc1` [(E)-N-(4-hydroxyphenethyl)-3-(methylthio)propenamide], the “% squalene protection” value in data set [3] (compound 1 mM in methanol) was 30%.
For `CS(=O)(=S)/C=C\C(=O)NCCO` (stereo not shown) [(Z)-N-(2-hydroxyethyl)-3-(methylthiosulfonyl)propenamide], the “% cell viability” value with HaCaT keratinocytes [5] is 93.1%.
As to `CS/C=C/C(=O)NCCO` [(E)-N-(2-hydroxyethyl)-3-(methylthio)propenamide], the “% squalene protection” value in data set [3] (compound 1 mM in methanol) is 71%.
Consider `CS/C=C\C(=O)NCCO` [(Z)-N-(2-hydroxyethyl)-3-(methylthio)propenamide], for which the “% squalene protection” value in data set [3] (compound 1 mM in methanol) was found to be 24%. Besides, the “% squalene protection” value in data set [3] (compound 5 mM in methanol) is reported as 25%. For the same compound, in the data set on HaCaT keratinocytes [1], the viability at 100 µM was determined as 64%, the viability at 250 µM was found to be 85% and the viability at 500 µM amounted to 94%. The “% inhibition of trans-urocanic acid photo-isomerization” value in data set [4] worked out at 75%. Besides, the “% isomerization” value in data set [2] was found to be 62%.
